Test results as given in ChEMBL document CHEMBL1201862, “PubChem BioAssay data set” (2004).
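48-hour exposure; five concentrations; linearly interpolated endpoints. GI50: concentration for 50% inhibition of growth.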 The source made the active and inactive calls. Cut-off read from the data, not from the text of the source: active = GI50 up to about 1.1 µM and inactive = higher.

Assays:
Assay in all cases: NCI-60 cell line screen, 48 h
[1] = tested on: SK-OV-3
[2] = tested on: SN12C
[3] = tested on: PC-3
[4] = tested on: NCI-H23
[5] = tested on: HT-29
[6] = tested on: OVCAR-8
[7] = tested on: NCI-H522
[8] = tested on: HOP-62
[9] = tested on: T47D
[10] = tested on: OVCAR-5
[11] = tested on: K562
[12] = tested on: UACC-257
[13] = tested on: SK-MEL-28
[14] = tested on: RPMI-8226
[15] = tested on: SNB-19
[16] = tested on: HL-60
[17] = tested on: RXF 393
[18] = tested on: IGROV-1
[19] = tested on: NCI-H226
[20] = tested on: MDA-MB-231
[21] = tested on: 786-0
[22] = tested on: A549
[23] = tested on: MCF7
[24] = tested on: OVCAR-3
[25] = tested on: HCC 2998
[26] = tested on: UO-31
[27] = tested on: Hs-578T
[28] = tested on: A498
[29] = tested on: SF-539
[30] = tested on: EKVX
[31] = tested on: SF-268
[32] = tested on: CAKI-1
[33] = tested on: MDA-MB-435
[34] = tested on: NCI-H460
[35] = tested on: HCT-116
[36] = tested on: NCI/ADR-RES
[37] = tested on: BT-549
[38] = tested on: UACC-62
[39] = tested on: M14
[40] = tested on: ACHN
[41] = tested on: LOX IMVI
[42] = tested on: SW-620
[43] = tested on: KM12
[44] = tested on: DU-145
[45] = tested on: U-251
[46] = tested on: Malme-3M
[47] = tested on: SK-MEL-5
[48] = tested on: SF-295
[49] = tested on: COLO 205
[50] = tested on: HCT-15
[51] = tested on: TK-10
[52] = tested on: SR
[53] = tested on: SK-MEL-2
[54] = tested on: CCRF-CEM

## COc1ccc([N+](=O)[O-])cc1[I+]c1cc([N+](=O)[O-])ccc1OC
[1]
  GI50: 29.4 µM (inactive)
[2]
  GI50: 43.5 µM (inactive)
[3]
  GI50: 52 µM (inactive)
[4]
  GI50: 55.1 µM (inactive)
[5]
  GI50: 38 µM (inactive)
[6]
  GI50: 73.6 µM (inactive)
[7]
  GI50: 27 µM (inactive)
[8]
  GI50: > 100 µM (inactive)
[9]
  GI50: 28.8 µM (inactive)
[10]
  GI50: > 100 µM (inactive)
[11]
  GI50: 35 µM (inactive)
[12]
  GI50: 33.6 µM (inactive)
[13]
  GI50: 7.64 µM (inactive)
[14]
  GI50: 23.7 µM (inactive)
[15]
  GI50: 34.9 µM (inactive)
[16]
  GI50: 20.7 µM (inactive)
[17]
  GI50: 27.7 µM (inactive)
[18]
  GI50: 23 µM (inactive)
[19]
  GI50: 53.2 µM (inactive)
[20]
  GI50: > 100 µM (inactive)
[21]
  GI50: > 100 µM (inactive)
[22]
  GI50: 45.8 µM (inactive)
[23]
  GI50: 31.9 µM (inactive)
[24]
  GI50: 54.1 µM (inactive)
[25]
  GI50: 42.2 µM (inactive)
[26]
  GI50: 60.5 µM (inactive)
[27]
  GI50: 91.6 µM (inactive)
[28]
  GI50: 81.5 µM (inactive)
[29]
  GI50: 44 µM (inactive)
[30]
  GI50: 33.8 µM (inactive)
[31]
  GI50: 25.1 µM (inactive)
[32]
  GI50: 38.6 µM (inactive)
[33]
  GI50: 21.3 µM (inactive)
[34]
  GI50: 22.5 µM (inactive)
[35]
  GI50: 89.5 µM (inactive)
[36]
  GI50: > 100 µM (inactive)
[37]
  GI50: 30.9 µM (inactive)
[38]
  GI50: 23.2 µM (inactive)
[39]
  GI50: 39.6 µM (inactive)
[40]
  GI50: 74.3 µM (inactive)
[41]
  GI50: 29.4 µM (inactive)
[42]
  GI50: 45.3 µM (inactive)
[43]
  GI50: 22.7 µM (inactive)
[44]
  GI50: > 100 µM (inactive)
[45]
  GI50: 16.1 µM (inactive)
[46]
  GI50: 4.47 µM (inactive)
[47]
  GI50: 12.4 µM (inactive)
[48]
  GI50: 33.3 µM (inactive)
[49]
  GI50: 68.9 µM (inactive)
[50]
  GI50: 41.1 µM
[51]
  GI50: 58.6 µM (inactive)
[52]
  GI50: 12.3 µM (inactive)
[53]
  GI50: 27.5 µM (inactive)
[54]
  GI50: 25.4 µM (inactive)
